In patent US7741344B2, “Process for preparing purified S-BEL and R-BEL and compositions thereof” (Washington University in St. Louis, priority 2002, dated 2010):
Read-outs that look alike come from different tables or passages of the source.

Assays:
[1] = system: cytosolic phosphatidate phosphohydrolase (PAP-1); assay: Cytosolic phosphatidate phosphohydrolase activity of A-10 cell cytosol fraction; type: biochemical, rat; conditions: concentrations up to 200 μM BEL; FIG. 6A
Description: (§1) Measurement of Cytosolic and Membrane-bound Phosphatidate Phosphohydrolase Activities—A-10 cells were grown to confluency, washed twice in ice-cold phosphate-buffered saline, and harvested in lysis buffer (50 mM Tris-HCl, pH 7.4 containing 0.25 M sucrose and 0.2 mM DTT). After brief sonication utilizing a Vibra-Cell VC4O sonicator (5×1 s pulses at 30% power), the lysed cell suspension was centrifuged at 100,000×g for 1 hr to separate cytosolic and membrane fractions. In some tests, A-10 cells were washed and pretreated with BEL or ethanol vehicle (as described above for tests examining [^3H]-AA liberation) before isolation of cell homogenates. […] Reactions were terminated with 900 μL of 5% acetic acid and extracted into chloroform by the method of Bligh and Dyer (38) prior to separating dipaliitoyl glycerol by TLC utilizing chloroform: methanol: water (65:35:2) as the mobile phase prior to quantification by scintillation spectrometry.
(§2) A-10 cells plated on 100 mm dishes were washed 2× in ice-cold PBS and harvested in lysis buffer (50 mM Tris-HCl, pH 7.4 containing 0.25 M sucrose and 0.2 mM DTT). […] In panel B, intact A-10 cells were washed and pretreated with BEL or ethanol vehicle (as described in FIG. 5) before isolation of the cell homogenate and quantification of phosphatidate phosphohydrolase activity as described above. […]

[2] = system: membrane-bound phosphatidate phosphohydrolase (PAP-2); assay: Membrane-bound phosphatidate phosphohydrolase activity of A-10 cell membrane fraction; type: biochemical, rat; conditions: concentrations up to 200 μM BEL; FIG. 6A
Description: as §1, §2

[3] = system: phosphatidate phosphohydrolase in A-10 cells; assay: Total phosphatidate phosphohydrolase activity in homogenates of intact A-10 cells pretreated with BEL; type: cell-based, rat; conditions: intact A-10 cells exposed to up to 100 μM; FIG. 6B
Description: as §1, §2

A-10 smooth muscle cells = conditions: prior studies (10, 29), cited from earlier work
[4] = system: iPLA2 vs. cPLA2 and SPLA2 family members; conditions: (31, 32); cited from earlier work
[5] = system: magnesium-dependent cytozoic phosphatidate phosphohydrolase, PAP-1; conditions: 25 μM BEL; (33, 34); cited from earlier work
[6] = system: PAP-1 in mouse P388D1 macrophages; conditions: ≈25 μM; (33); cited from earlier work
[7] = system: PAP-1 in human amnionic WISH cells; conditions: ≈25 μM; (34); cited from earlier work
A-10 cells = conditions: cited from earlier work
P388D1 macrophages = conditions: up to 5 μM BEL; (15); cited from earlier work
α-chymotrypsin = molecular target: T1, α-chymotrypsin (Bos taurus, UniProt P00766); assay: Inhibition of α-chymotrypsin by BEL; type: biochemical; conditions: 2 μM chymotrypsin, up to 5-fold molar excess of inhibitor, 5 min 22° C., then 1000-fold dilution with 100 mM hydrazine; FIG. 3
T1 construct: purchased Sigma
Description: Inhibition of α-Chymotrypsin by BEL—The kinetics of α-chymotrrpsin inactivation by (R)-, (S)-, and rac-BEL were performed similar to methods previously described (36). The concentration of α-chymotrypsin (MW=25,000) was determined using an A^1%=20 (1 cm pathlength) at 280 nm (37). Briefly, one milliliter of α-chymotrypsin (2 μM) was incubated with up to a 5-fold molar excess of (R)-,(S)-, or rac-BEL dissolved in acetonitrile or vehicle alone for 5 mm at 22° C. in 0.1 M sodium phosphate buffer, pH 7.2. […] Following incubation at 22° C. for 1 hr, chymotrypsin activity in each diluted sample was measured utilizing a SPECTRAmax GeminiXS microplate spectrofluorometer with N-succinyl-Ala-Ala-Pro-Phe-7-amidomethylcoumarin (50 μM) as substrate for 1 mm at 25° C. Excitation and emission wavelengths were 380 nm and 460 nm, respectively.
Chymotrypsin (2 μM) in 0.1 M sodium phosphate buffer, pH 7.2 was incubated with the indicated concentrations of racemic, (R)-, or (S)-BEL for 5 mm. This solution was then diluted 1000-fold in 0.1 M sodium phosphate buffer, pH 7.2 containing 100 mM hydrazine and incubated for 1 hr at 22° C. Chymotrypsin proteolytic activity was measured spectrofluorometrically using N-succinyl-Ala-Ala-Pro-Phe-7-amido-4-methylcoumarin (50 μM) as substrate.

SMILES | effect on cytosolic (PAP-1) phosphatidate phosphohydrolase [1] | effect on membrane-bound (PAP-2) phosphatidate phosphohydrolase [2] | total phosphatidate phosphohydrolase activity in comparison to ethanol-treated controls [3] | inhibition of AVP-inducible arachidonic acid release (A-10 smooth muscle cells; 2 μM BEL pretreatment) | inhibition of AVP-inducible arachidonic acid release (A-10 smooth muscle cells; 5 μM BEL pretreatment) [%] | selectivity iPLA2 vs. cPLA2 and SPLA2 family members [4] [fold] | inhibition of PAP-1 [5] | inhibition of PAP-1 in mouse P388D1 macrophages [6] | inhibition of PAP-1 in human amnionic WISH cells [7] | release of IP2 or IP3 in A-10 cells (A-10 cells) | levels of diacylglycerol or phosphatidic acid formed upon stimulation with zymosan (P388D1 macrophages) | inhibition of chymotrypsin (α-chymotrypsin)
O=C1OC(=CBr)CCC1c1cccc2ccccc12 (racemic) [rac-BEL, Racemic (E)-6-(bromomethylene)-3-(1-naphthalenyl)-2H-tetrahydropyran-2-one] | lack of any effect | lack of any effect | did not inhibit | ≈ 60% | ~80 | 1000 | partially inhibit | effectively inhibit | effectively inhibit | does not inhibit | does not significantly effect | –
O=C1O/C(=C/Br)CC[C@@H]1c1cccc2ccccc12 [(R)-BEL, (R)(E)-6-(bromomethylene)-3-(1-naphthalenyl)-2H-tetrahydropyran-2-one] | – | – | – | – | – | – | – | – | – | – | – | stoichiometrically and irreversibly inhibited
